US12077503B2, “Substituted cyclic amides and their use as herbicides” (FMC CORPORATION, priority 2015, dated 2024)

Tests used:
Type in all cases: in vivo
corn (Zea mays) = test: Test A postemergence
Description: (§1) Seeds of plant species selected from barnyardgrass (Echinochloa crus-galli), Kochia (Kochia scoparia), ragweed (common ragweed, Ambrosia elatior), ryegrass, Italian (Italian ryegrass, Lolium multiflorum), crabgrass, large (Digitaria sanguinalis), giant foxtail (Setaria faberii), green foxtail (Setaria viridis), morningglory (Ipomoea spp.), pigweed (Amaranthus retroflexus), velvetleaf (Abutilon theophrasti), wheat (Triticum aestivum), and corn (Zea mays) were planted into a blend of loam soil and sand and treated preemergence with a directed soil spray using test chemicals formulated in anon-phytotoxic solvent mixture which included a surfactant.
(§2) At the same time, plants selected from these crop and weed species and also blackgrass (Alopecurus myosuroides), and Galium (catchweed bedstraw, Galium aparine) were planted in pots containing the same blend of loam soil and sand and treated with postemergence applications of test chemicals formulated in the same manner. Plants ranged in height from 2 to 10 cm and were in the one- to two-leaf stage for the postemergence treatment. Treated plants and untreated controls were maintained in a greenhouse for approximately 10 d, after which time all treated plants were compared to untreated controls and visually evaluated for injury. Plant response ratings, summarized in Table A, are based on a 0 to 100 scale where 0 is no effect and 100 is complete control. A dash (-) response means no test result.

[1] = tested on: wheat (Triticum aestivum); test: Test A postemergence
Description: as §1, §2

[2] = tested on: Galium (catchweed bedstraw, Galium aparine); test: Test A postemergence
Description: as §1, §2

[3] = tested on: blackgrass (Alopecurus myosuroides); test: Test A postemergence
Description: as §1, §2

[4] = tested on: ryegrass, Italian (Italian ryegrass, Lolium multiflorum); test: Test A postemergence
Description: as §1, §2

[5] = tested on: pigweed (Amaranthus retroflexus); test: Test A postemergence
Description: as §1, §2

[6] = tested on: giant foxtail (Setaria faberii); test: Test A postemergence
Description: as §1, §2

Kochia (Kochia scoparia) [7] = test: Test A postemergence
Description: as §1, §2

[8] = tested on: ragweed (common ragweed, Ambrosia elatior); test: Test A postemergence
Description: as §1, §2

[9] = tested on: barnyardgrass (Echinochloa crus-galli); test: Test A postemergence
Description: as §1, §2

[10] = tested on: ryegrass, Italian (Italian ryegrass, Lolium multiflorum); test: Test A preemergence; conditions: Preemergence; for Plant response rating, Ryegrass, Italian: 125 g ai/ha, visual injury after approximately 10 d, 0 to 100 scale where 0 is no effect and 100 is complete control; for Ryegrass, Italian plant response rating (0 to 100 scale, 0 is no effect, 100 is complete control): 500 g ai/ha, visual injury approx. 10 d
Description: as §1, §2

[11] = tested on: pigweed (Amaranthus retroflexus); test: Test A preemergence; conditions: Preemergence; for Plant response rating, Pigweed: 125 g ai/ha, visual injury after approximately 10 d, 0 to 100 scale where 0 is no effect and 100 is complete control; for Pigweed plant response rating (0 to 100 scale, 0 is no effect, 100 is complete control): 500 g ai/ha, visual injury approx. 10 d
Description: as §1, §2

[12] = tested on: giant foxtail (Setaria faberii); test: Test A preemergence; conditions: Preemergence; for Plant response rating, Foxtail, Giant: 125 g ai/ha, visual injury after approximately 10 d, 0 to 100 scale where 0 is no effect and 100 is complete control; for Foxtail, Giant plant response rating (0 to 100 scale, 0 is no effect, 100 is complete control): 500 g ai/ha, visual injury approx. 10 d
Description: as §1, §2

Kochia (Kochia scoparia) [13] = test: Test A preemergence; conditions: Preemergence; for Plant response rating, Kochia: 125 g ai/ha, visual injury after approximately 10 d, 0 to 100 scale where 0 is no effect and 100 is complete control; for Kochia plant response rating (0 to 100 scale, 0 is no effect, 100 is complete control): 500 g ai/ha, visual injury approx. 10 d
Description: as §1, §2

[14] = tested on: ragweed (common ragweed, Ambrosia elatior); test: Test A preemergence; conditions: Preemergence; for Plant response rating, Ragweed: 125 g ai/ha, visual injury after approximately 10 d, 0 to 100 scale where 0 is no effect and 100 is complete control; for Ragweed plant response rating (0 to 100 scale, 0 is no effect, 100 is complete control): 500 g ai/ha, visual injury approx. 10 d
Description: as §1, §2

[15] = tested on: barnyardgrass (Echinochloa crus-galli); test: Test A preemergence; conditions: Preemergence; for Plant response rating, Barnyardgrass: 125 g ai/ha, visual injury after approximately 10 d, 0 to 100 scale where 0 is no effect and 100 is complete control; for Barnyardgrass plant response rating (0 to 100 scale, 0 is no effect, 100 is complete control): 500 g ai/ha, visual injury approx. 10 d
Description: as §1, §2

[16] = 125 g ai/ha, postemergence, visual rating after approx. 10 d, 0 to 100 scale (0 no effect, 100 complete control)
[17] = Postemergence, 500 g ai/ha, 0 to 100 scale where 0 is no effect and 100 is complete control

Cc1ccc(C2CN(C)C(=O)C2C(=O)Nc2ccc(F)cc2F)c(F)c1 (centres unmarked) [Compound 559]
Plant response rating, Corn (corn (Zea mays); [16]): 0
Plant response rating, Corn (corn (Zea mays); [17]): 30
Plant response rating, Wheat [1, 16]: 0
Plant response rating, Wheat [1, 17]: 50
Plant response rating, Galium [2, 16]: 50
Plant response rating, Galium [2, 17]: 60
Plant response rating, Blackgrass [3, 16]: 20
Plant response rating, Blackgrass [3, 17]: 60
Plant response rating, Ryegrass, Italian [4, 16]: 0
Plant response rating, Ryegrass, Italian [4, 17]: 30
Plant response rating, Pigweed [5, 16]: 0
Plant response rating, Pigweed [5, 17]: 0
Plant response rating, Foxtail, Giant [6, 16]: 90
Plant response rating, Foxtail, Giant [6, 17]: 90
Plant response rating, Kochia (Kochia (Kochia scoparia) [7]; [16]): 30
Plant response rating, Kochia (Kochia (Kochia scoparia) [7]; [17]): 70
Plant response rating, Ragweed [8, 16]: 0
Plant response rating, Ragweed [8, 17]: 0
Plant response rating, Barnyardgrass [9, 16]: 90
Plant response rating, Barnyardgrass [9, 17]: 100
Plant response rating, Ryegrass, Italian [10]: 0
Ryegrass, Italian plant response rating (0 to 100 scale, 0 is no effect, 100 is complete control) [10]: 50
Plant response rating, Pigweed [11]: 20
Pigweed plant response rating (0 to 100 scale, 0 is no effect, 100 is complete control) [11]: 50
Plant response rating, Foxtail, Giant [12]: 90
Foxtail, Giant plant response rating (0 to 100 scale, 0 is no effect, 100 is complete control) [12]: 100
Plant response rating, Kochia (Kochia (Kochia scoparia) [13]): 60
Kochia plant response rating (0 to 100 scale, 0 is no effect, 100 is complete control) (Kochia (Kochia scoparia) [13]): 80
Plant response rating, Ragweed [14]: 0
Ragweed plant response rating (0 to 100 scale, 0 is no effect, 100 is complete control) [14]: 20
Plant response rating, Barnyardgrass [15]: 90
Barnyardgrass plant response rating (0 to 100 scale, 0 is no effect, 100 is complete control) [15]: 100

CN1CC(c2cccc(C(F)(F)F)c2)C(C(=O)Nc2cccc(C#N)c2F)C1=O (centres unmarked) [Compound 576]
Plant response rating, Corn (corn (Zea mays); [16]): 80
Plant response rating, Corn (corn (Zea mays); [17]): 80
Plant response rating, Wheat [1, 16]: 60
Plant response rating, Wheat [1, 17]: 70
Plant response rating, Galium [2, 16]: 50
Plant response rating, Galium [2, 17]: 60
Plant response rating, Blackgrass [3, 16]: 50
Plant response rating, Blackgrass [3, 17]: 50
Plant response rating, Ryegrass, Italian [4, 16]: 30
Plant response rating, Ryegrass, Italian [4, 17]: 60
Plant response rating, Pigweed [5, 16]: 0
Plant response rating, Pigweed [5, 17]: 50
Plant response rating, Foxtail, Giant [6, 16]: 90
Plant response rating, Foxtail, Giant [6, 17]: 90
Plant response rating, Kochia (Kochia (Kochia scoparia) [7]; [16]): 30
Plant response rating, Kochia (Kochia (Kochia scoparia) [7]; [17]): 60
Plant response rating, Ragweed [8, 16]: 30
Plant response rating, Ragweed [8, 17]: 50
Plant response rating, Barnyardgrass [9, 16]: 90
Plant response rating, Barnyardgrass [9, 17]: 90
Plant response rating, Ryegrass, Italian [10]: 20
Ryegrass, Italian plant response rating (0 to 100 scale, 0 is no effect, 100 is complete control) [10]: 30
Plant response rating, Pigweed [11]: 20
Pigweed plant response rating (0 to 100 scale, 0 is no effect, 100 is complete control) [11]: 80
Plant response rating, Foxtail, Giant [12]: 90
Foxtail, Giant plant response rating (0 to 100 scale, 0 is no effect, 100 is complete control) [12]: 90
Plant response rating, Kochia (Kochia (Kochia scoparia) [13]): 20
Kochia plant response rating (0 to 100 scale, 0 is no effect, 100 is complete control) (Kochia (Kochia scoparia) [13]): 90
Plant response rating, Ragweed [14]: 20
Ragweed plant response rating (0 to 100 scale, 0 is no effect, 100 is complete control) [14]: 60
Plant response rating, Barnyardgrass [15]: 90
Barnyardgrass plant response rating (0 to 100 scale, 0 is no effect, 100 is complete control) [15]: 90

CCc1cccc(C2CN(C)C(=O)C2C(=O)Nc2cccc(F)c2F)c1 (centres unmarked) [Compound 568]
Plant response rating, Corn (corn (Zea mays); [16]): 60
Plant response rating, Corn (corn (Zea mays); [17]): 90
Plant response rating, Wheat [1, 16]: 30
Plant response rating, Wheat [1, 17]: 70
Plant response rating, Galium [2, 16]: 60
Plant response rating, Galium [2, 17]: 60
Plant response rating, Blackgrass [3, 16]: 60
Plant response rating, Blackgrass [3, 17]: 90
Plant response rating, Ryegrass, Italian [4, 16]: 70
Plant response rating, Ryegrass, Italian [4, 17]: 90
Plant response rating, Pigweed [5, 16]: 30
Plant response rating, Pigweed [5, 17]: 60
Plant response rating, Foxtail, Giant [6, 16]: 90
Plant response rating, Foxtail, Giant [6, 17]: 90
Plant response rating, Kochia (Kochia (Kochia scoparia) [7]; [16]): 70
Plant response rating, Kochia (Kochia (Kochia scoparia) [7]; [17]): 70
Plant response rating, Ragweed [8, 16]: 30
Plant response rating, Ragweed [8, 17]: 30
Plant response rating, Barnyardgrass [9, 16]: 100
Plant response rating, Barnyardgrass [9, 17]: 100
Plant response rating, Ryegrass, Italian [10]: 70
Ryegrass, Italian plant response rating (0 to 100 scale, 0 is no effect, 100 is complete control) [10]: 100
Plant response rating, Pigweed [11]: 30
Pigweed plant response rating (0 to 100 scale, 0 is no effect, 100 is complete control) [11]: 60
Plant response rating, Foxtail, Giant [12]: 100
Foxtail, Giant plant response rating (0 to 100 scale, 0 is no effect, 100 is complete control) [12]: 100
Plant response rating, Kochia (Kochia (Kochia scoparia) [13]): 70
Kochia plant response rating (0 to 100 scale, 0 is no effect, 100 is complete control) (Kochia (Kochia scoparia) [13]): 80
Plant response rating, Ragweed [14]: 20
Ragweed plant response rating (0 to 100 scale, 0 is no effect, 100 is complete control) [14]: 50
Plant response rating, Barnyardgrass [15]: 90
Barnyardgrass plant response rating (0 to 100 scale, 0 is no effect, 100 is complete control) [15]: 100

CCc1cccc(C2CN(C)C(=O)C2C(=O)Nc2ccccc2S(C)(=O)=O)c1 (centres unmarked) [Compound 569]
Plant response rating, Corn (corn (Zea mays); [16]): 20
Plant response rating, Corn (corn (Zea mays); [17]): 60
Plant response rating, Wheat [1, 16]: 30
Plant response rating, Wheat [1, 17]: 70
Plant response rating, Galium [2, 16]: 40
Plant response rating, Galium [2, 17]: 60
Plant response rating, Blackgrass [3, 16]: 60
Plant response rating, Blackgrass [3, 17]: 80
Plant response rating, Ryegrass, Italian [4, 16]: 40
Plant response rating, Ryegrass, Italian [4, 17]: 60
Plant response rating, Pigweed [5, 16]: 0
Plant response rating, Pigweed [5, 17]: 50
Plant response rating, Foxtail, Giant [6, 16]: 90
Plant response rating, Foxtail, Giant [6, 17]: 90
Plant response rating, Kochia (Kochia (Kochia scoparia) [7]; [16]): 20
Plant response rating, Kochia (Kochia (Kochia scoparia) [7]; [17]): 50
Plant response rating, Ragweed [8, 16]: 30
Plant response rating, Ragweed [8, 17]: 60
Plant response rating, Barnyardgrass [9, 16]: 90
Plant response rating, Barnyardgrass [9, 17]: 90
Plant response rating, Ryegrass, Italian [10]: 30
Ryegrass, Italian plant response rating (0 to 100 scale, 0 is no effect, 100 is complete control) [10]: 70
Plant response rating, Pigweed [11]: 50
Pigweed plant response rating (0 to 100 scale, 0 is no effect, 100 is complete control) [11]: 80
Plant response rating, Foxtail, Giant [12]: 100
Foxtail, Giant plant response rating (0 to 100 scale, 0 is no effect, 100 is complete control) [12]: 100
Plant response rating, Kochia (Kochia (Kochia scoparia) [13]): 60
Kochia plant response rating (0 to 100 scale, 0 is no effect, 100 is complete control) (Kochia (Kochia scoparia) [13]): 90
Plant response rating, Ragweed [14]: 60
Ragweed plant response rating (0 to 100 scale, 0 is no effect, 100 is complete control) [14]: 70
Plant response rating, Barnyardgrass [15]: 90
Barnyardgrass plant response rating (0 to 100 scale, 0 is no effect, 100 is complete control) [15]: 100
